Results on two compounds are retold here after patent US20260364073A1, “MAVACAMTEN AND DERIVATIVES THEREOF FOR USE IN TREATING ATRIAL DYSFUNCTION” (MyoKardia, Inc., priority 2022, published 2026).

Structures are written as SMILES.

The target in experiment [1] is T1, bovine cardiac synthetic myosin filaments (Bos taurus, UniProt Q9BE39).
T1 construct: single-turnover ATPase (DRX/SRX)
Description: DRX and SRX ATPase rates in bovine cardiac synthetic myosin filaments. The experiment is classed as biochemical. To be noted: role: inhibitor, range of concentrations (FIG. 5), Compound A compared with mavacamten.

Another experiment concerns α-MHC / β-MHC in the LA. Description: LA myosin isoform content (α-MHC to β-MHC conversion) in HCM pigs. Format: in vivo, Yucatan mini-pigs. The note with it: HCM pigs (FIG. 3), in comparison to untreated HCM pig controls. The source says: (§1) FIG. 1 is a schematic diagram showing the design for an experiment on the chronic effects of Compound A on HCM and on left atrial and left ventricular geometry and function in a mini-pig model of inherited HCM (“HCM pigs”). Compound A dose is increased over the first 12 weeks of the study to account for weight gain. CMPD A: Compound A. CTRL: control. cMR: cardiac MRI. PV: LV pressure and volume studies (invasive hemodynamics). RNA: LV gene expression studies. HIST: histology. BIO: LV/LA fiber biomechanical studies.
FIG. 3 is a set of graphs showing the effects of Compound A on left atrial (LA) geometry and function in HCM pigs.
(§2) Young (~1 month) cloned Yucatan mini-pigs with a heterozygous MYH7 R403Q mutation (“HCM pigs”) were treated and evaluated as shown in FIG. 1. The pigs were randomly assigned to one of two arms: untreated controls (CTRL, n=29) or daily Compound A (n=22; PO); untreated wild-type pigs (WT) served as […]. The pigs treated with Compound A were divided into two cohorts: A and B. Treated animals received progressively increasing Compound A doses (5, 7.5, 10, and 15 mg/day PO) to account for weight gain. After 14 weeks of treatment, pigs underwent in vivo cardiac MRI (cMR) imaging, including T1 mapping and extracellular volume (ECV) assessments. […]

Experiment [2] has as its system HCM pigs (heterozygous MYH7 R403Q mutation). As to the kind of experiment: Chronic Compound A treatment in mini-pig model of inherited HCM: mortality, cTnT, cardiac MRI. The experiment is classed as in vivo, Yucatan mini-pigs. To be noted: chronic treatment PO.
From the text: as §1
This Example describes an in vivo study that evaluates the chronic effects of Compound A, in a genetic large-animal model of HCM.
as §2

T1 sequence (Q9BE39 whole entry): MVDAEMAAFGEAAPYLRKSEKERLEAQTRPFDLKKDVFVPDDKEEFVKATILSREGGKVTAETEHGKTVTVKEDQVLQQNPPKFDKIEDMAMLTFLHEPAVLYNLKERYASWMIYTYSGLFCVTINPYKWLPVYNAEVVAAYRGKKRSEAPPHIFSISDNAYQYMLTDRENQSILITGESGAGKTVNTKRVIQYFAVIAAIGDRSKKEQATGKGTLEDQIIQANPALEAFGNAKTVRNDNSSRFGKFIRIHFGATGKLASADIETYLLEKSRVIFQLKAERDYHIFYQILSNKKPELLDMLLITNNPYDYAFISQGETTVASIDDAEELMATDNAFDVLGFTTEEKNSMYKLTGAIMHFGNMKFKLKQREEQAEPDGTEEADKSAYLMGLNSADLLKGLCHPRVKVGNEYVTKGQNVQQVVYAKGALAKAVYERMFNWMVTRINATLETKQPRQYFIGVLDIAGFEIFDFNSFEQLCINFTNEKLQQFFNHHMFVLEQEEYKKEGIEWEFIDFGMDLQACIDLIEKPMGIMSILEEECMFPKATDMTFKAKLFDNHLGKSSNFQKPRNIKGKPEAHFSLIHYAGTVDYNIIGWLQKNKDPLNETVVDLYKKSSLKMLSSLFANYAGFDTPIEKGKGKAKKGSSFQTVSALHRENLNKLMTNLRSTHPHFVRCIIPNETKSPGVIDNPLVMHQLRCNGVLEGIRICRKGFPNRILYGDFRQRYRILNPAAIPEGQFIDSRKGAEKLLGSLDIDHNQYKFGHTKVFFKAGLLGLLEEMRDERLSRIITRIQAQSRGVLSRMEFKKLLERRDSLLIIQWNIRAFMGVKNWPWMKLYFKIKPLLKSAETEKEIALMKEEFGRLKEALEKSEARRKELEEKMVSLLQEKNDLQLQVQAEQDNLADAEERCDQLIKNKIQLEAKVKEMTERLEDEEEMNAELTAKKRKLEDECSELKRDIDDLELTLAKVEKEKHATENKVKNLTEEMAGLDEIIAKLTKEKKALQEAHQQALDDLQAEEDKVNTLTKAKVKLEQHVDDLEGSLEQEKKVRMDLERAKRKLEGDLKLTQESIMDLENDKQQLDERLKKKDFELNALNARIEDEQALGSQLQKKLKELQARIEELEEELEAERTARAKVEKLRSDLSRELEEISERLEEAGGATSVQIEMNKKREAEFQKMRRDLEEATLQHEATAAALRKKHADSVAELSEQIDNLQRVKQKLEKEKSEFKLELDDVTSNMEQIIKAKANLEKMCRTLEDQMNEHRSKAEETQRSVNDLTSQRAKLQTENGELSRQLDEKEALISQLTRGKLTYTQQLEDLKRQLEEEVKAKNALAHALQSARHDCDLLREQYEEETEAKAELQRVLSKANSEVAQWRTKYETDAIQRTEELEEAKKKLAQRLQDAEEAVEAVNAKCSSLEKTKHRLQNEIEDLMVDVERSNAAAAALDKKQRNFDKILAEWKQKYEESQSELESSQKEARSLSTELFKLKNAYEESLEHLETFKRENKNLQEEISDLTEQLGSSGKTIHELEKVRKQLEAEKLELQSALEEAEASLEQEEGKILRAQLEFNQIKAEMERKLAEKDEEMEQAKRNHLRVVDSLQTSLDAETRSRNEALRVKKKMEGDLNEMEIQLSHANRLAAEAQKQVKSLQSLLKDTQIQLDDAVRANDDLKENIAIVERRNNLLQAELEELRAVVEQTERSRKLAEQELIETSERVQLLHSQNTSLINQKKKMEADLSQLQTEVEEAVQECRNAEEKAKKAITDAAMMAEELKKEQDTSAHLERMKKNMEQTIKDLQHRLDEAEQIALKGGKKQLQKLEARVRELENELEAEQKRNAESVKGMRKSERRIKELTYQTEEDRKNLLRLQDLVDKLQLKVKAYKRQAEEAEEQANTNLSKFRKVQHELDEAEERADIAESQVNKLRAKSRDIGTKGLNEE
T1 sequence (P85100 whole entry partner): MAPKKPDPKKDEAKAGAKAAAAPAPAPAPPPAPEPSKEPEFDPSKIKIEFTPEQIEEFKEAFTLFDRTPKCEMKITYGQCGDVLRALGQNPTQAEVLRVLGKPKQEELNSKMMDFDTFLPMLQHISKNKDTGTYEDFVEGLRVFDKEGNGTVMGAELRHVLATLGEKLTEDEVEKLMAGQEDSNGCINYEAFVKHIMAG
T1 sequence (Q3SZE5 whole entry partner): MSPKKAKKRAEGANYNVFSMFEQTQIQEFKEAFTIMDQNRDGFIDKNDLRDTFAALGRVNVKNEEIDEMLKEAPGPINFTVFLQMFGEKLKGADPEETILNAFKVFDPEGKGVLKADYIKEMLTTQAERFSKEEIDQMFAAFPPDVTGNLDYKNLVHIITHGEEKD

For `CC(C)n1c(=O)cc(N[C@@H](C)c2cccc(F)c2)[nH]c1=O` [Compound A], in experiment [1], the “disordered relaxed state (DRX) ATPase rate (as a fraction of control)” value was “similar” and the “super-relaxed state (SRX) ATPase rate (as a fraction of control)” value is on record as “similar”. In addition, the “conversion of α-MHC to β-MHC in the LA” value in the experiment with α-MHC / β-MHC in the LA was “prevented the conversion of α-MHC to β-MHC in the LA”. Moreover, the left atrial remodeling entry in experiment [2] is recorded as “prevented left atrial remodeling”.

As for `CC(C)n1c(=O)cc(N[C@@H](C)c2ccccc2)[nH]c1=O` [mavacamten], in experiment [1], the “disordered relaxed state (DRX) ATPase rate (as a fraction of control)” value is reported as “similar” and the “super-relaxed state (SRX) ATPase rate (as a fraction of control)” value is reported as “similar”.
